According to paper PMC12314052 (Nature Communications, 2025):
Substitutions are numbered along the chain they refer to.

What was measured:
hM5 mAChR [1] = target: T1, hM5 mAChR (Homo sapiens, UniProt P08912); experiment: Inositol monophosphate (IP1) accumulation assay, ML380-ACh interaction; assay type: cell-based; conditions: WT M5 mAChR, CHO cells
T1 construct: expressed in transfected cells
T1 sequence (P08912 1-532): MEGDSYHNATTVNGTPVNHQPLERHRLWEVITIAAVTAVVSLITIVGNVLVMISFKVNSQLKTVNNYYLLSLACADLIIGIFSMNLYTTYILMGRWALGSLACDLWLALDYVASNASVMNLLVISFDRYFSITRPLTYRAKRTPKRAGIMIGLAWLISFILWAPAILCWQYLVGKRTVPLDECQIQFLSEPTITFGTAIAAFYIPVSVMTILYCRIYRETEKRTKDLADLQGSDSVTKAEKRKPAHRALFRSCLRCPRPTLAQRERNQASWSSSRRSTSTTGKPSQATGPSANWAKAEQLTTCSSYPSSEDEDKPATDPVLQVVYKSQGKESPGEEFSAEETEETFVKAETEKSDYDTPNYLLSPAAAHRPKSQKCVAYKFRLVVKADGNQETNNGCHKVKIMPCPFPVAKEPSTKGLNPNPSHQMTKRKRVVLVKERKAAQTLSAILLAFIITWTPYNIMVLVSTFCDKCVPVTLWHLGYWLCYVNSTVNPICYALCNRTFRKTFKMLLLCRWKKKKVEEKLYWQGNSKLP
Protocol: (§1) FlpIn CHO cells stably expressing either WT or mutant hM5 mAChR were seeded in clear, flat bottom 96-well plates at a density of 10,000−25,000 cells per well (depending on the cell line) one day prior to the assay. The optimal cell density for each line was chosen based on achieving an IP1 response that fell within the linear range of the IP1 standard curve. On the assay day, the medium was replaced with stimulation buffer (Hanks’ balanced salt solution (HBSS) containing 10 mM HEPES, 1.3 mM CaCl2, and 30 mM LiCl, pH 7.4) and allowed to incubate for 60 minutes at 37 °C before ligand stimulation. After this pre-incubation, the buffer was replaced, and cells were exposed to ligands for 60 minutes at 37 °C in a 5% CO2 atmosphere, with a total assay volume of 100 μL. Following the 60-minute stimulation, ligands were removed by rapid removal of buffer. Cells were lysed by freeze-thawing in 30 μL of stimulation buffer. IP1 accumulation was then quantified using the HTRF IP-One assay kit (Cisbio), with fluorescence measured on an EnVision multilabel plate reader (PerkinElmer).
(§2) All data were analysed using GraphPad Prism 10 (GraphPad Software, San Diego, CA). The interaction between orthosteric agonist and allosteric modulator in functional assays was analysed using an operational model of allosterism to determine functional modulation (log αβ) and affinity (pKB) parameters. Radioligand saturation binding experiments with [^3H]-NMS to determine Bmax and pKD values were determined using a one site – specific binding equation in Prism 10^31. For the radioligand binding interaction of orthosteric agonist with various concentrations of allosteric modulator, the data were fit to an allosteric ternary complex model to derive pKB and α binding cooperativity parameters. All affinity, potency, cooperativity, and efficacy parameters were estimated as logarithms. To ensure model convergence in all instances, allosteric parameters were determined from the respective allosteric models, which were globally fitted to all individual datasets for each allosteric modulator at each receptor construct. […]

hM5 mAChR [2] = target: T2, hM5 mAChR (Homo sapiens, UniProt P08912, A113V/G152A/L156V); experiment: as above; assay type: cell-based; conditions: M5 EH4 pocket mutant (A113V, G152A, L156V), CHO cells
T2 construct: expressed in transfected cells
T2 sequence (P08912 1-532 A113V/G152A/L156V): T1 sequence (P08912 1-532) with A113V, G152A, L156V
Protocol: as §1, §2

hM5 mAChR [3] = experiment: as above; assay type: cell-based, human; conditions: ECV allosteric site alanine mutants of M5 mAChR, CHO cells
Protocol: as §1, §2

hM5 mAChR [4] = experiment: [3H]-NMS equilibrium radioligand binding, interaction of ACh and allosteric modulator; design: species or system human
Protocol: FlpIn CHO cells stably expressing WT hM5 mAChR or mutants were plated at 25,000 cells per well in 96-well isoplates (PerkinElmer Life Sciences) and incubated overnight at 37 °C in a 5% CO2 incubator. The following day, the cells were washed with PBS and incubated in 20 mM HEPES, 100 mM NaCl, 10 mM MgCl2, pH 7.4. For saturation binding experiments, the cells were incubated with varying concentrations of the orthosteric antagonist [^3H]-N-methylscopolamine ([^3H]-NMS; specific activity, 70 Ci/mmol, Perkin Elmer) in a final volume of 100 μL for 6 hours at room temperature. […] Radioactivity was measured by adding 100 μL of Optiphase Supermix scintillation fluid (PerkinElmer) and counted using a MicroBeta^2 Plate Counter (PerkinElmer Life Sciences).
All data were analysed using GraphPad Prism 10 (GraphPad Software, San Diego, CA). The interaction between orthosteric agonist and allosteric modulator in functional assays was analysed using an operational model of allosterism to determine functional modulation (log αβ) and affinity (pKB) parameters. Radioligand saturation binding experiments with [^3H]-NMS to determine Bmax and pKD values were determined using a one site – specific binding equation in Prism 10^31. […]

ACh-bound M5 mAChR = target: T3, ACh-bound M5 mAChR (Homo sapiens, UniProt P08912); experiment: Binding affinity for the ACh-bound receptor (chemical probe statement); conditions: determined in this study and others
T3 sequence (P08912 1-532): T1 sequence (P08912 1-532)

[5] = cited from earlier work
[6] = test system: Gαq-coupled mAChRs (M1, M3, M5); conditions: M1, M3, M5 mAChRs ref 27; cited from earlier work

Row | SMILES | Activity of ML380 and cooperativity with ACh (hM5 mAChR [1]) | Change in ML380 affinity (pKB) compared to WT (hM5 mAChR [2]) | ML380 function at ECV alanine mutants (hM5 mAChR [3]) | ML380 cooperativity with ACh versus WT (hM5 mAChR [4]; M5/M2 TM1,7,h8 chimera) | ML380's ability to modulate ACh binding (hM5 mAChR [4]; M5/M2 TM2,3,4 and M5/M2 TM3,4,5 chimeras (swapping TM2-5)) | Kd (ACh-bound M5 mAChR) [nM] | CNS penetration [5] | Partition coefficients ([5]; limited in vivo utility ref 25) | Effect on ACh signalling [6]
1 | CCN(Cc1ccccc1C(F)(F)F)C(=O)C1CCN(S(=O)(=O)c2ccc3[nH]ncc3c2)CC1 [ML380, 1-((1H-indazol-5-yl)sulfoneyl)-N-ethyl-N-(2-(trifluoromethyl)benzyl)piperidine-4-carboxamide] | both agonism and positive cooperativity with ACh | no significant change in affinity | retained its ability to bind, activate, and modulate receptor function | increased | completely abolished | ~575 | penetrate the CNS | poor | 
2 | O=C1C(=O)N(Cc2ccc(Br)cc2)c2ccccc21 [VU0119498] |  |  |  |  |  |  |  |  | enhanced
